{"source": "patent US11135185B2", "about": "“Uses of curcumin derivative” (Merry Life Biomedical Company, Ltd., priority 2018, dated 2021)", "key": {"[1]": {"system": "ApoE", "test": "Western blotting of ApoE in Huh-7 cells", "assay_type": "cell-based, human", "conditions": "24 h treatment, Western blotting (FIG. 1)", "method": "(§1) The human hepatoma Huh-7 cell lines were obtained from the Health Science Research Resources Bank (JCRB0403; Osaka, Japan) and were cultured in Dulbecco's modified Eagle's medium (DMEM, Gibco) supplemented with 100 U/ml penicillin, […] streptomycin and 10% fetal bovine serum (FBS, Biological industry). Cells were cultured at 37° C. in a humidified atmosphere of 5% CO2 incubator (Forma Scientific, Marietta, Ohio, USA). The cells were seeded in 24-well, 6 or 10 cm dishes overnight the day before the experiment. On the next day, the cells were treated with curcumin (Sigma) and TML-6. The stock concentration was prepared at 5 mg/mL (for curcumin) and 10 mM (for TML-6).\n(§2) After cells were seeded and treated with curcumin and its derivatives for 24h, cells were washed with ice-cold PBS and lysed with 100 μL of RIPA lysis buffer (Pierce Biotechnology, Rockford, Ill., USA) supplemented with protease and phosphatase inhibitors (Roche Diagnostics, Mannheim, Germany). Cell lysates were further cleaned by centrifugation at 14000 rpm 4° C. for 15 min. Protein concentration was determined using a Bradford assay (Bio-Rad, Hercules, Calif., USA). For western blot analysis, 20 μg of each sample was prepared for SDS-PAGE and denatured at 95° C. for 10 min. […]"}, "[2]": {"system": "phospho-NF-κB", "test": "Western blotting of phospho-NF-κB in Huh-7 cells", "assay_type": "cell-based, human", "conditions": "24 h treatment, Western blotting (FIG. 1)", "method": "as §1, §2"}, "[3]": {"system": "Aβ production in N2a/APPswe cells", "test": "Amyloid β ELISA of culture medium of N2a/APPswe stable cell line", "assay_type": "cell-based", "conditions": "24 h incubation, ELISA (FIG. 2)", "method": "Extracellular levels of soluble Aβ40 and Aβ42 were determined by LEGEND MAX™ 3-Amyloid x-40 and X-42 ELISA Kit (Biolegend). N2A neuroblastoma cell line with stably over expressing APP Swedish mutation (APPswe) was designed as N2A/APPswe cell line (kindly grafted from Prof. Kuo, Yu-Min's Lab). 8×10^5 N2A/APPswe cells were seeded on a 6-cm dish. After overnight incubation, the cells were treated with curcumin or TML-6 for 24 h. The culture supernatant was collected and centrifuged at 1,500×g at 4° C. for 5 min to remove cells. The Aβ levels of the culture supernatants of various treatments were assayed according to the manufacture's instrumentations. The samples were detected at OD620 and the calculation of Aβ levels was based on the standard curves of Aβ40 and Aβ42, respectively."}, "[4]": {"system": "Iba-1 (microglial activation biomarker) in 3×Tg AD transgenic mice", "test": "Iba-1 immunofluorescence staining in 3×Tg-AD transgenic mice", "assay_type": "in vivo", "conditions": "six-month-old 3×Tg AD mice fed 150 mg/kg for four months, compared to curcumin (FIG. 5)", "source_text": "(§3) Triple-transgenic mice as a model of Alzheimer's disease (3×Tg-AD, APP Swedish, MAPT P301L, and PSEN1 M146V) were bred at the laboratory animal center of National Cheng Kung University (NCKU) [Oddo S, Caccamo A, Shepherd J D, Murphy M P, Golde T E, Kayed R, Metherate R, Mattson M P, Akbari Y, LaFerla F M: Triple-transgenic model of Alzheimer's disease with plaques and tangles: intracellular Abeta and synaptic dysfunction. Neuron 2003, 39(3):409-421]. Experimental procedures for handling the mice were in accordance with the guidelines of the Institutional Animal Care and Use Committee (IACUC) of NCKU. The mice were housed in a room maintained on a 12-h light-dark cycle and fed ad libitum. […] These mice developed plaque and tangle pathology. Aβ deposition as progressive deposition appeared as early as six months.\n(§4) Mice were anesthetized and euthanized with 10% chloral hydrate (400 mg/kg, i.p.) and then transcardial perfusion was performed with 0.01 M PBS (pH 7.4). The brains were post-fixed in 4% PFA for 2 days and dehydrated with 30% sucrose at 4° C. The hydrated brain was embedded with optimal cutting temperature compound (OCT, Leica) and quick-frozen at −30° C. The blocks were sectioned at 16 um-thick. Slices were stored at −20° C. […] The images were captured by TissureFAXS microscopy system and positive signals were quantified by TissueQuest software module (TissueGnostic, Vienne, Austria)."}, "[5]": {"system": "Aβ levels in the brain of 3×Tg AD transgenic mice", "test": "Aβ immunofluorescence staining of brain sections of 3×Tg-AD transgenic mice", "assay_type": "in vivo", "conditions": "six-month-old 3×Tg AD mice fed 150 mg/kg for four months, immunofluorescence (FIG. 4)", "source_text": "as §3, §4"}, "[6]": {"system": "APP", "test": "Western blotting of APP in Huh-7 cells", "assay_type": "cell-based, human", "conditions": "24 h treatment, Western blotting (FIG. 1)", "quoted_text": "The human hepatoma Huh-7 cell lines were obtained from the Health Science Research Resources Bank (JCRB0403; Osaka, Japan) and were cultured in Dulbecco's modified Eagle's medium (DMEM, Gibco) supplemented with 100 U/ml penicillin, 100 mg/ml streptomycin and 10% fetal bovine serum (FBS, Biological industry). Cells were cultured at 37° C. in a humidified atmosphere of 5% CO2 incubator (Forma Scientific, Marietta, Ohio, USA). The cells were seeded in 24-well, 6 or 10 cm dishes overnight the day before the experiment.\nAfter cells were seeded and treated with curcumin and its derivatives for 24h, cells were washed with ice-cold PBS and lysed with 100 μL of RIPA lysis buffer (Pierce Biotechnology, Rockford, Ill., USA) supplemented with protease and phosphatase inhibitors (Roche Diagnostics, Mannheim, Germany). Cell lysates were further cleaned by centrifugation at 14000 rpm 4° C. for 15 min. Protein concentration was determined using a Bradford assay (Bio-Rad, Hercules, Calif., USA). For western blot analysis, 20 μg of each sample was prepared for SDS-PAGE and denatured at 95° C. for 10 min. The prepared samples from total lysates were loaded and separated by SDS-PAGE (8% or 10%), and then transferred to PVDF membranes (pore size 0.45 μm; PerkinElmer) by semi-dry transfer cell (Bio-Rad). […]"}, "[7]": {"system": "ApoE promoter", "test": "ApoE promoter luciferase reporter assay in Huh-7 cells", "assay_type": "cell-based, human", "conditions": "for luciferase activity of ApoE promoter: Huh-7, serial truncations of ApoE promoter from -1061/+45 to -154/+45, 24 h (FIG. 3C)", "source_text": "The promoter region of human APOE gene has been identified and published [[…]]. We constructed ApoE promoter region from -1061 +45 in two-steps. The first fragment was amplified using polymerase chain reaction (PCR) by forward primer APOE-[…] ID NO: 1) paired with reverse primer APOE-R-BglII: [NT] ID NO: 2) and was ligated to the pGL3 basic vector (Promega, Madison, Wis., USA) by using Kpn I and Bgl II restriction sites. The second fragment was amplified using PCR by forward primer APOE-F-BglII: [NT] ID NO: 3) paired with reverse primer APOE-[…] ID NO: 4) and was ligated to the pGL3-basic (Promega) by using Bgl II and Hind III restriction sites. The serial deletion mutants of ApoE promoter, -705/+45, -456/+45, -344/+45, -247/+45, -154/+45 and -32/+45 were amplified using PCR and based on the full-length ApoE promoter (-1061/+45). The generated fragments were digested by Kpn I and Xba I and then inserted into the pGL3-basic vector (Promega). To generate the deletion mutants of ApoE promoter, primers were used to amplify the promoter for different lengths. The forward primers were APOE-705-[…] ID NO: 5), APOE-456-[…] ID NO: 6), APOE-344-[…] ID NO: 7), APOE-247-[…] ID NO: 8), APOE-154-[…] ID NO: 9), and APOE-32-[…] ID NO: 10) which were paired with reverse primer APOE-[…] ID NO: 4) to amplify the target region of the promoter. For disrupting the binding sites of PPAR and/or AP-2 on ApoE promoter, we conducted the point mutation method and the primers paired used were as follows: -154[…] ID NO: 11) paired with -154[…] ID NO: 12), -154[…] ID NO: 13) paired with -154[…] ID NO: 14), -154[…] ID NO: 15) paired with -154[…] ID NO: 16), -154[…] ID NO: 17) paired with -154[…] ID NO: 18). The pGL3-154/+45-ApoE-Luc was used as the template for PCR reaction to amplify the mutant of PPAR or AP-2 binding sites in the ApoE promoter. The PCR products were digested by Dpn I and transformed into TOP10 competent cells (Invitrogen, Carlsbad, Calif., USA). After LB plating and extraction of plasmids, positive colonies were confirmed by restriction enzyme digestion. All of the promoter constructs were verified by sequencing. The Huh-7 cells were seeded in 24-well culture plates and then co-transfected with serial deletion of pGL3-ApoE-Luc (firefly luciferase) with pRL-TK renilla luciferase reporter. Following overnight incubation, the transfected cells were treated with traditional curcumin, and TML-6 for an additional 24h. […] The relative luciferase units (RLU) were measured using a luminometer (GLOMAX Multi, Promega). […] The RLUs are expressed as means plus standard deviation of three independent experiments."}, "[8]": {"system": "soluble Aβ", "conditions": "AD transgenic mouse, within hours, ApoE-dependent; cited from earlier work"}}, "note": "“Also recorded” adds a separate entry of the source.", "data": [{"smiles": "CCN(CC)C(=O)CC(C)(C(=O)/C=C/c1ccc(OC)c(OC)c1)C(=O)/C=C/c1ccc(OC)c(OC)c1", "note": "[TML-6]", "values": [{"measurement": "protein expression level of Apo E", "setting": "[1]", "result": "significantly increased"}, {"measurement": "protein expression level of phospho-NF-κB", "setting": "[2]", "result": "decreased in a dose-dependent manner"}, {"measurement": "Aβ42/40 ratio", "setting": "[3]", "result": "significantly suppresses"}, {"measurement": "production of Aβ40", "setting": "[3]", "result": "significantly suppresses"}, {"measurement": "production of Aβ42", "setting": "[3]", "result": "significantly suppresses"}, {"measurement": "expression of Iba-1 (brain inflammation)", "setting": "[4]", "result": "significantly better activity than curcumin; also recorded: significantly inhibited"}, {"measurement": "Aβ levels in the brain", "setting": "[5]", "result": "significantly better activity than curcumin; also recorded: significantly decrease"}, {"measurement": "protein expression level of APP", "setting": "[6]", "result": "decreased in a dose-dependent manner"}, {"measurement": "ApoE promoter activity after disruption of proximal PPARα/RXRα and AP2 binding sites", "setting": "[7]; Huh-7, -154/+45 mutants MdelAP2 and MdelPPAR, 24 h (FIG. 3E)", "result": "significantly suppressed"}, {"measurement": "luciferase activity of ApoE promoter", "setting": "[7]", "result": "gradually increases"}, {"measurement": "promoter activity of ApoE-154MdelAP2/+45 mutant compared with wild-type -154/+45", "setting": "[7]; Huh-7, siRNA knockdown experiment, 24 h (FIG. 3F)", "result": "suppressed"}]}, {"smiles": "C=C(c1ccc(C(=O)O)cc1)c1cc2c(cc1C)C(C)(C)CCC2(C)C", "note": "[bexarotene]", "values": [{"measurement": "clearance of soluble Aβ", "setting": "[8]", "result": "enhanced clearance"}]}, {"smiles": "COc1cc(/C=C/C(=O)CC(=O)/C=C/c2ccc(O)c(OC)c2)ccc1O", "note": "[curcumin, diferuloyl methane]", "values": [{"measurement": "protein expression level of Apo E", "setting": "[1]", "result": "upregulate ApoE"}, {"measurement": "protein expression level of phospho-NF-κB", "setting": "[2]", "result": "inhibit NFκB"}, {"measurement": "protein expression level of APP", "setting": "[6]", "result": "inhibit the APP synthesis"}, {"measurement": "luciferase activity of ApoE promoter", "setting": "[7]", "result": "gradually increases"}]}]}
